According to patent US20230219890A1, “BICYCLIC COMPOUNDS AND USE THEREOF” (Betta Pharmaceuticals Co.,Ltd, priority 2020, published 2023):

System: VEGFA (786-O cells)
Assay: VEGFA ELISA Assay (IC50)
Type: cell-based
Conditions: 24 hours incubation, VEGFA in culture supernatant by ELISA, class symbols
Experimental: 786-O cells in exponential growth phase were seeded in 96-well plate, the cell concentration was 65,000 cells per milliliter of culture medium, 180 ul per well. Compounds were serial diluted to the indicated concentration, and 20 ul compound solutions of different concentrations were added to the corresponding cell wells. The final compound concentrations were as follows (nM): 1.5, 4.6, 13.7, 41.2, 123.5, 370.4, 1111.1, 3333.3, 10000. After 24 hours of incubation, the cell culture supernatant was taken, and the VEGFA concentration was determined using an ELISA kit (purchased from abcam). Finally, the reaction was terminated, and the light absorbance value of each well was measured using a microplate reader at a wavelength of […], and IC50 was calculated by GraphPad Prism. Cell Titer-Glo reagent was used to measure cell viability.

SMILES	IC50 [nM]
OC1c2c(C(F)(F)F)cn(Cc3cc(F)cc(Cl)c3)c2CCC1(F)F (stereo not shown) [Example 29]	1500 to 10000
O[C@H]1c2c(C(F)(F)F)c(Cl)n(-c3ccc(F)c(Cl)c3)c2CCC1(F)F [Example 107, (S)-2-chloro-1-(3-chloro-54-fluorophenyl)-5,5-difluoro-3-(trifluoromethyl)-4,5,6,7-tetrahydro-1H-indol-4-ol]	≤ 500

Same assay, conditions: Homo sapiens, 786-0, 24 h, 24 hours incubation, VEGFA in culture supernatant by ELISA, class symbols

SMILES	IC50 [nM]
N#Cc1cc(-n2cc(C(F)(F)F)c3c2CCC(F)(F)[C@@H]3F)ccc1F (single isomer, unassigned) [Example 197]	≤ 500
N#Cc1cc(-n2cc(I)c3c2CCC(F)(F)C3O)ccc1F (stereo not shown) [Example 5, 5-(5,5-difluoro-hydroxy-3-iodo-4,5,6,7-tetrahydro-1H-indol-1-yl)-2-fluorobenzonitrile]	500 to 1500
O=C1c2c(C(F)(F)F)cn(-c3cc(F)cc(Cl)c3)c2CCC1(F)F [Example 6, 1-(3-chloro-5-fluorophenyl)-5,5-difluoro-3-(trifluoromethyl)-1,5,6,7-tetrahydro-4H-indol-4-one]	500 to 1500
N#Cc1ccc(-n2cc(C(F)(F)F)c3c2CCC(F)(F)C3O)cc1 (stereo not shown) [Example 13, 4-(5,5-difluoro-4-hydroxy-3 (trifluoromethyl)-4,5,6,7-tetrahydro-1H-indol-1-yl)benzonitrile]	≤ 500
OC1c2c(C(F)(F)F)cn(-c3cc(F)cc(C(F)(F)F)c3)c2CCC1(F)F (stereo not shown) [Example 24]	≤ 500
N#Cc1cc(F)cc(-n2cc(C(F)(F)F)c3c2CCCC3O)c1 (stereo not shown) [Example 41, 3-fluoro-5-(4-hydroxy-3-(trifluoromethyl)-4,5,6,7-tetrahydo-1H-indol-1-yl)benzonitrile]	500 to 1500
Cn1cccc1-c1cn(-c2cc(F)cc(Cl)c2)c2c1C(O)C(F)(F)CC2 (stereo not shown) [Example 51, 1-(3-chloro-5-fluorophenyl)-5,5-difluoro-3-(1-methyl-1H-pyrrol-2-yl)-4,5,6,7-tetrahydro-1H-indol-4-ol]	500 to 1500
OC1c2c(-c3ccco3)cn(-c3cc(F)cc(Cl)c3)c2CCC1(F)F (stereo not shown) [Example 53, 1-(3-chloro-5-fluorophenyl)-5,5-difluoro-3-(furan-2-yl)-4,5,6,7-tetrahydro-1H-indol-4-ol]	≤ 500
N#Cc1cc(-n2cc(-c3cncs3)c3c2CCC(F)(F)C3O)ccc1F (stereo not shown) [Example 54, 5-(5,5-difluoro-4-hydroxy-3-(thiazol-5-yl)-4,5,6,7-tetrahydro-1H-indol-1-yl)-2-fluorobenzonitrile]	500 to 1500
OC1c2c(C(F)(F)F)cc(-c3cc(F)cc(Cl)c3)n2CCC1F (stereo not shown) [Example 68, 3-(3-chloro-5-fluorophenyl)-7-fluoro-1-(trifluoromethyl)-5,6,7,8-tetrahydroindolizin-8-ol]	≤ 500
OC1c2c(C(F)(F)F)cc(-c3cc(F)cc(F)c3)n2CCC1(F)F (stereo not shown) [Example 76, 3-(3,5-difluorophenyl)-7,7-difluoro-1-(trifluoromethyl)-5,6,7,8-tetrahydroindolizin-8-ol]	≤ 500
OC1c2c(C(F)(F)F)nn(-c3cc(F)cc(F)c3)c2CCC1(F)F (stereo not shown) [Example 88, 1-(3,5-difluorophenyl)-5,5-difluoro-3-(trifluoromethyl)-4,5,6,7-tetrahydro-1H-indazol-4-ol]	> 1500
OC1c2c(C(F)(F)F)nn(-c3cc(F)cc(Cl)c3)c2CCC1(F)F (stereo not shown) [Example 90, 1-(3-chloro-5-fluorophenyl)-5,5-difluoro-3-(trifluoromethyl)-4,5,6,7-tetrahydro-1H-indazol-4-ol]	> 1500
N#Cc1cc(F)cc(-n2nc(C(F)(F)F)c3c2CCC(F)(F)C3O)c1 (stereo not shown) [Example 92]	> 1500
CS(=O)(=O)c1nn(Cc2ccc(F)cc2)c2c1C(=O)CCC2 [Example 93, 1-(4-fluorobenzyl)-3-(methylsulfonyl)-1,5,6,7-tetrahydro-4H-indazol-4-one]	> 1500
N#Cc1cn(-c2cc(F)cc(Cl)c2)c2c1C(O)C(F)(F)CC2 (stereo not shown) [Example 96, 1-(3-chloro-5-fluorophenyl)-5,5-difluoro-4-hydroxyl-4,5,6,7-tetrahydro-1H-indol-3-carbonitrile]	≤ 500
OC1c2c(C(F)(F)F)cn(-c3cc(F)cc(Cl)c3)c2CCC1(F)F (stereo not shown) [Example 97, 1-(3-chloro-5-fluorophenyl)-5,5-difluoro-3-(trifluoromethyl)-4,5,6,7-tetrahydro-1H-indol-4-ol]	≤ 500
CC1(O)c2c(C(F)(F)F)cn(-c3ccc(F)c(C#N)c3)c2CCC1(F)F (stereo not shown) [Example 100, 5-(5,5-difluoro-4-hydroxyl-4-methyl-3-(trifluoromethyl)-4,5,6,7-tetrahydro-1H-indol-1-yl)-2-fluorobenzonitrile]	≤ 500

SMILES	IC50 [nM]
OC1CCCc2c1c(C(F)(F)F)cn2-c1ccc(F)c(C(F)F)c1 (stereo not shown) [Example 108, 1-(3-(difluoromethyl)-4-fluorophenyl)-3-(trifluoromethyl)-4,5,6,7-tetrahydro-1H-indol-4-ol]	≤ 500
CS(=O)(=O)c1cn(-c2cc(F)cc(Cl)c2)c2c1C(O)C(F)(F)CC2 (stereo not shown) [Example 109, 1-(3-chloro-5-fluorophenyl)-5,5-difluoro-3-(methylsulfonyl)-4,5,6,7-tetrahydro-1H-indol-4-ol]	≤ 500
OC1c2c(C(F)(F)F)cn(-c3ccc(Cl)cc3)c2CC(F)C1F (stereo not drawn) [Example 130, l-(4-chlorophenyl)-5,6-difluoro-3-(trifluoromethyl)-4,5,6,7-tetrahydro-1H-indol-4-ol]	≤ 500
OC1c2c(C(F)(F)F)cn(-c3cncc(F)c3)c2CC(F)C1F (stereo not shown) [Example 132, 5,6-difluoro-1-(5-fluoropyridin-3-yl)-3-(trifluoromethyl)-4,5,6,7-tetranydro-1H-indol-4-ol]	≤ 500
OC1c2c(C(F)(F)F)cn(-c3cncc(F)c3)c2CCC1(F)F (stereo not shown) [Example 133]	500 to 1500
CS(=O)(=O)c1cn(-c2ccc(F)c(C#N)c2)c2c1[C@H](O)C(F)(F)CC2 [Example 134, (S)-5-(5,5-difluoro-4-hydroxy-3-(methylsulfonyl)-4,5,6,7-tetrahydro-1H-indol-1-yl)-2-fluorobenzonitrile]	≤ 500
N#Cc1cc(F)cc(-n2cc(C(F)(F)F)c3c2CCC(F)C3O)c1 (stereo not shown) [Example 139, 3-fluoro-5-(5-fluoro-4-hydroxy-3-(trifluoromethyl)-4,5,6,7-tetrahydro-1H-indol-1-yl)benzonitrile]	≤ 500
OC1c2c(C(F)(F)F)cn(-c3cc(F)cc(Cl)c3)c2C(F)CC1F (stereo not shown) [Example 141]	≤ 500
OC1c2c(C(F)(F)F)cn(-c3cc(F)cc(Cl)c3)c2CCC1F (stereo not shown) [Example 142, 1-(3-chloro-5-fluorophenyl)-5-fluoro-3-(trifluoromethyl)-4,5,6,7-tetrahydro-1H-indol-4-ol]	≤ 500
OC1c2c(-c3ccccc3)cn(-c3cc(F)cc(Cl)c3)c2CCC1(F)F (stereo not shown) [Example 145]	1500 to 10000
N#Cc1cc(Cl)cc(-n2cc(C(F)(F)F)c3c2CCC(F)(F)C3O)c1 (stereo not shown) [Example 154, 3-chloro-5-(5,5-difluoro-4-hydroxy-3-(trifluoromethyl)-4,5,6,7-tetrahydro-1H-indol-1-yl)benzonitrile]	≤ 500
OC1c2c(C(F)(F)F)cn(-c3ccc(F)c(F)c3)c2CCC1(F)F (stereo not shown) [Example 164]	≤ 500
OC1c2c(C(F)(F)F)cn(-c3ccc(F)nc3)c2CCC1(F)F (stereo not shown) [Example 170]	500 to 1500
O[C@@H]1c2c(C(F)(F)F)cn(-c3ccc(F)c(C(F)F)c3)c2CCC1(F)F [Example 174, (R)-1-(3-(difluoromethyl)-4-fluorophenyl)-5,5-difluoro-3-(trifluoromethyl)-4,5,6,7-tetrahydro-1H-indol-4-ol]	500 to 1500
N#CC1c2c(C(F)(F)F)cn(-c3ccc(F)cc3)c2CCC1(F)F (stereo not shown) [Example 178, 5,5-difluoro-1-(4-fluorophenyl)-3-(trifluoromethyl)-4,5,6,7-tetrahydro-1H-indole-4-carbonitrile]	≤ 500
CC1Cc2c(c(C(F)(F)F)cn2-c2ccc(F)c(C#N)c2)C(O)C1(F)F (stereo not shown) [Example 179, 5-(5,5-difluoro-4-hydroxy-6-methyl-3-(trifluoromethyl)-4,5,6,7-tetrahydro-1H-indol-1-yl)-2-fluorobenzonitrile]	500 to 1500
CC1Cc2c(c(C(F)(F)F)cn2-c2ccc(F)c(C#N)c2)[C@H](O)C1(F)F (stereo partly shown) [Example 180]	500 to 1500

Same assay, conditions: Homo sapiens, 786-0, 24 h, 24 hours incubation, VEGFA in culture supernatant by ELISA, numeric values

SMILES	IC50 [nM]
OC1c2c(C(F)(F)F)cn(-c3cc(F)cc(Br)c3)c2CCC1(F)F (stereo not shown) [Example 22]	55.4
OC1c2c(C(F)(F)F)cc(-c3cc(F)cc(Cl)c3)n2CCC1(F)F (stereo not shown) [Example 71, 3-(3-chloro-5-fluoropheny1)-7,7-difluoro-1-(trifluoromethyl)-5,6,7,8-tetrahydroindolizin-8-ol]	13.8
N#Cc1cc(F)cc(-c2cc(C(F)(F)F)c3n2CCC(F)(F)C3O)c1 (stereo not shown) [Example 77, 3-(7,7-difluoro-8-hydroxy-1-(trifluoromethyl)-5,6,7,8-tetrahydroindolizin-3-yl)-5-fluorobenzonitrile]	16.2
N#Cc1ccc(-n2cc(C(F)(F)F)c3c2CCC(F)(F)C3O)cc1F (stereo not shown) [Example 122, 4-(5,5-difluoro-4-hydroxy-3-(trifluoromethyl)-4,5,6,7-tetrahydro-1H-indol-1-yl)-2-fluorobenzonitrile]	42.6
N#Cc1cc(-n2cc(C(F)(F)F)c3c2CCC(F)(F)C3O)ccc1Cl (stereo not shown) [Example 137]	42.1
OC1c2c(C(F)(F)F)cn(-c3ccc(F)cc3)c2CCC1(F)F (stereo not shown) [Example 160, 5,5-difluoro-1-(4-fluorophenyl)-3-(trifluoromethyl)-4,5,6,7-tetrahydro-1H-indol-4-ol]	46.1
